A value given as a limit tells only on which side of the number the result lay.

The target of the first assay is T1, TYK2 (Homo sapiens, UniProt P29597). Description: TYK2 degradation MSD assay in EBV-B cells. Format: cell-based. Also noted: endogenous in cells; host or cells: EBV-B cells. As to conditions: 4 to 24 hours incubation, read-out: TYK2 MSD DC50 rating in EBV-B. In a few lines: (§1)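 0.4 million cells/well; cpd 9-dose 1:3 titration, top 1–10 μM; 4–24 h, 37° C, 5% CO2; RIPA lysis; TYK2 capture/detection sandwich on MSD, SULFO-TAG anti-rabbit secondary; DC50 via 4-parameter fit.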
T1 sequence (P29597 whole entry): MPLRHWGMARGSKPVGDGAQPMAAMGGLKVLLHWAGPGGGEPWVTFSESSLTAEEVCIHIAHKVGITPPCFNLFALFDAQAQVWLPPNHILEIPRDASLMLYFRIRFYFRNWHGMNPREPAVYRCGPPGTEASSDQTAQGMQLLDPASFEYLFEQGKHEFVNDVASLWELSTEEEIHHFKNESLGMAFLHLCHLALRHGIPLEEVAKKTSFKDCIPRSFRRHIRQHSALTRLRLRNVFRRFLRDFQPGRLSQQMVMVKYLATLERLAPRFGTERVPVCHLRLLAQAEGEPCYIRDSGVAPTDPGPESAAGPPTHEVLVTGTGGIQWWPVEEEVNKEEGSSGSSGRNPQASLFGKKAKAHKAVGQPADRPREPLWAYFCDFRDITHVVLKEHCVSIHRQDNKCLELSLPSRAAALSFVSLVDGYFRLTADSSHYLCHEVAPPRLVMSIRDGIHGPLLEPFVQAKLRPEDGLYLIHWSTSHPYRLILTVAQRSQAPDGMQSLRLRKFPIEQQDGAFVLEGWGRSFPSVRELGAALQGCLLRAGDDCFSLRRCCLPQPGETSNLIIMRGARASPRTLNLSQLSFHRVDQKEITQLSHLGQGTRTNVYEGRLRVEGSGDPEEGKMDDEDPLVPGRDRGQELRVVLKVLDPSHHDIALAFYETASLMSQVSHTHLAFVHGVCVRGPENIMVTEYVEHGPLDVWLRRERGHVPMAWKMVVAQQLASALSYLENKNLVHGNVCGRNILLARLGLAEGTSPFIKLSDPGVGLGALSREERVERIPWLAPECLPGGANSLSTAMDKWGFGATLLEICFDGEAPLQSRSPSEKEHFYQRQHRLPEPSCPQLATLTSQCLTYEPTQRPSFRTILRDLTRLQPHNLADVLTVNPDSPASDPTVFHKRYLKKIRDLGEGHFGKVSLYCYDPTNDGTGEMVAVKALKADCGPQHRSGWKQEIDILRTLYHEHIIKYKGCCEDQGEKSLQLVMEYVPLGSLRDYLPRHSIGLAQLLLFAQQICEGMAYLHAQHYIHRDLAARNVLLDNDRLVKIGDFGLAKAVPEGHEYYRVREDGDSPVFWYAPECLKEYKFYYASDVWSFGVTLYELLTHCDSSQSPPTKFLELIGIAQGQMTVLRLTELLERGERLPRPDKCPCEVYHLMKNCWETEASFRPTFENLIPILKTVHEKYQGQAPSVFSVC
Consider `CNc1cc(Nc2cccn(-c3cccc(C(=O)NCCCCCCCCc4cccc5c4n(C)c(=O)n5C4CCC(=O)NC4=O)c3)c2=O)nn2c(C(=O)N[C@@H]3C[C@@H]3F)cnc12` (stereo partly drawn) [Example K224], for which the DC50 is > 100 nM.

Turning to `CNc1cc(Nc2cccn(-c3cccc(C(=O)NCCCCCCCCCCc4ccc5c(c4)n(C)c(=O)n5C4CCC(=O)NC4=O)c3)c2=O)nn2c(C(=O)N[C@@H]3C[C@@H]3F)cnc12` (stereo partly drawn) [Example K225], the DC50 was > 100 nM.

`CNc1cc(Nc2cccn(-c3cccc(C(=O)NCCCCCCCCCCc4cccc5c4n(C)c(=O)n5C4CCC(=O)NC4=O)c3)c2=O)nn2c(C(=O)N[C@@H]3C[C@@H]3F)cnc12` (stereo partly drawn) [Example K226]: the DC50 was > 100 nM.

As for `CNc1cc(Nc2cccn(-c3cccc(C(=O)NCCCCc4ccc5c(c4)n(C)c(=O)n5C4CCC(=O)NC4=O)c3)c2=O)nn2c(C(=O)N[C@@H]3C[C@@H]3F)cnc12` (stereo partly drawn) [Example K227], the DC50 is > 100 nM.

Regarding `CNc1cc(Nc2cccn(-c3cc(C(=O)NCCCCc4cccc5c4n(C)c(=O)n5C4CCC(=O)NC4=O)ccn3)c2=O)nn2c(C(=O)N[C@@H]3C[C@@H]3F)cnc12` (stereo partly drawn) [Example K228], the DC50 was > 100 nM.

With `CNc1cc(Nc2cccn(-c3cc(C(=O)NCCCCCCc4ccc5c(c4)n(C)c(=O)n5C4CCC(=O)NC4=O)ccn3)c2=O)nn2c(C(=O)N[C@@H]3C[C@@H]3F)cnc12` (stereo partly drawn) [Example K229], the DC50 is > 100 nM.

On to `CNc1cc(Nc2cccn(-c3cc(C(=O)NCCCCCCc4cccc5c4n(C)c(=O)n5C4CCC(=O)NC4=O)ccn3)c2=O)nn2c(C(=O)N[C@@H]3C[C@@H]3F)cnc12` (stereo partly drawn) [Example K230], for which the DC50 is > 100 nM.

Take `CNc1cc(Nc2cccn(-c3cc(C(=O)NCCCCCCCCc4ccc5c(c4)n(C)c(=O)n5C4CCC(=O)NC4=O)ccn3)c2=O)nn2c(C(=O)N[C@@H]3C[C@@H]3F)cnc12` (stereo partly drawn) [Example K231]: the DC50 is > 100 nM.

For `CNc1cc(Nc2cccn(-c3cc(C(=O)NCCCCCCCCc4cccc5c4n(C)c(=O)n5C4CCC(=O)NC4=O)ccn3)c2=O)nn2c(C(=O)N[C@@H]3C[C@@H]3F)cnc12` (stereo partly drawn) [Example K232], the DC50 was > 100 nM.

`CNc1cc(Nc2cccn(-c3cc(C(=O)NCCCCCCCCCCc4ccc5c(c4)n(C)c(=O)n5C4CCC(=O)NC4=O)ccn3)c2=O)nn2c(C(=O)N[C@@H]3C[C@@H]3F)cnc12` (stereo partly drawn) [Example K233]: the 50% degradation concentration (DC50) lay in the range of 1 to 10 nM.

With `CNc1cc(Nc2cccn(-c3cc(C(=O)NCCCCCCCCCCc4cccc5c4n(C)c(=O)n5C4CCC(=O)NC4=O)ccn3)c2=O)nn2c(C(=O)N[C@@H]3C[C@@H]3F)cnc12` (stereo partly drawn) [Example K234], the DC50 was > 100 nM.

Turning to `CNc1cc(Nc2cccn(-c3cccc(C(=O)NCCOCCOCCc4ccc5c(c4)n(C)c(=O)n5C4CCC(=O)NC4=O)c3)c2=O)nn2c(C(=O)N[C@@H]3C[C@@H]3F)cnc12` (stereo partly drawn) [Example K235], the DC50 is > 100 nM.

With `CNc1cc(Nc2cccn(-c3cccc(C(=O)NCCOCCOCCc4cccc5c4n(C)c(=O)n5C4CCC(=O)NC4=O)c3)c2=O)nn2c(C(=O)N[C@@H]3C[C@@H]3F)cnc12` (stereo partly drawn) [Example K236], the DC50 is > 100 nM.

On to `CNc1cc(Nc2cccn(-c3cc(C(=O)NCCOCCOCCc4ccc5c(c4)n(C)c(=O)n5C4CCC(=O)NC4=O)ccn3)c2=O)nn2c(C(=O)N[C@@H]3C[C@@H]3F)cnc12` (stereo partly drawn) [Example K237], for which the DC50 is > 100 nM.

As to `CNc1cc(Nc2cccn(-c3cc(C(=O)NCCOCCOCCc4cccc5c4n(C)c(=O)n5C4CCC(=O)NC4=O)ccn3)c2=O)nn2c(C(=O)N[C@@H]3C[C@@H]3F)cnc12` (stereo partly drawn) [Example K238], the DC50 is > 100 nM.

In a further assay the target is T1, TYK2. Description: TYK2 degradation MSD assay in OCI-LY10 cells. To be noted: 4 to 24 hours incubation, read-out: TYK2 MSD DC50 rating in OCI-LY10. Also noted: endogenous in cells; host or cells: EBV-B cells. The assay is classed as cell-based. In a few lines: as §1
Turning to `CNc1cc(Nc2cccn(-c3cccc(C(=O)NCCCCCCCCc4cccc5c4n(C)c(=O)n5C4CCC(=O)NC4=O)c3)c2=O)nn2c(C(=O)N[C@@H]3C[C@@H]3F)cnc12` (stereo partly drawn) [Example K224], the DC50 was > 100 nM.

As to `CNc1cc(Nc2cccn(-c3cccc(C(=O)NCCCCCCCCCCc4ccc5c(c4)n(C)c(=O)n5C4CCC(=O)NC4=O)c3)c2=O)nn2c(C(=O)N[C@@H]3C[C@@H]3F)cnc12` (stereo partly drawn) [Example K225], the DC50 was > 100 nM.

For the compound `CNc1cc(Nc2cccn(-c3cccc(C(=O)NCCCCCCCCCCc4cccc5c4n(C)c(=O)n5C4CCC(=O)NC4=O)c3)c2=O)nn2c(C(=O)N[C@@H]3C[C@@H]3F)cnc12` (stereo partly drawn) [Example K226], the DC50 was > 100 nM.

In the case of `CNc1cc(Nc2cccn(-c3cccc(C(=O)NCCCCc4ccc5c(c4)n(C)c(=O)n5C4CCC(=O)NC4=O)c3)c2=O)nn2c(C(=O)N[C@@H]3C[C@@H]3F)cnc12` (stereo partly drawn) [Example K227], the DC50 was > 100 nM.

Take `CNc1cc(Nc2cccn(-c3cc(C(=O)NCCCCc4cccc5c4n(C)c(=O)n5C4CCC(=O)NC4=O)ccn3)c2=O)nn2c(C(=O)N[C@@H]3C[C@@H]3F)cnc12` (stereo partly drawn) [Example K228]: the DC50 is > 100 nM.

For `CNc1cc(Nc2cccn(-c3cc(C(=O)NCCCCCCc4ccc5c(c4)n(C)c(=O)n5C4CCC(=O)NC4=O)ccn3)c2=O)nn2c(C(=O)N[C@@H]3C[C@@H]3F)cnc12` (stereo partly drawn) [Example K229], the DC50 is > 100 nM.

With `CNc1cc(Nc2cccn(-c3cc(C(=O)NCCCCCCc4cccc5c4n(C)c(=O)n5C4CCC(=O)NC4=O)ccn3)c2=O)nn2c(C(=O)N[C@@H]3C[C@@H]3F)cnc12` (stereo partly drawn) [Example K230], the DC50 was > 100 nM.

Regarding `CNc1cc(Nc2cccn(-c3cc(C(=O)NCCCCCCCCc4ccc5c(c4)n(C)c(=O)n5C4CCC(=O)NC4=O)ccn3)c2=O)nn2c(C(=O)N[C@@H]3C[C@@H]3F)cnc12` (stereo partly drawn) [Example K231], the DC50 is > 100 nM.

As for `CNc1cc(Nc2cccn(-c3cc(C(=O)NCCCCCCCCc4cccc5c4n(C)c(=O)n5C4CCC(=O)NC4=O)ccn3)c2=O)nn2c(C(=O)N[C@@H]3C[C@@H]3F)cnc12` (stereo partly drawn) [Example K232], the DC50 is > 100 nM.

Regarding `CNc1cc(Nc2cccn(-c3cc(C(=O)NCCCCCCCCCCc4ccc5c(c4)n(C)c(=O)n5C4CCC(=O)NC4=O)ccn3)c2=O)nn2c(C(=O)N[C@@H]3C[C@@H]3F)cnc12` (stereo partly drawn) [Example K233], the half-maximal degradation concentration (DC50) was > 100 nM.

As for `CNc1cc(Nc2cccn(-c3cc(C(=O)NCCCCCCCCCCc4cccc5c4n(C)c(=O)n5C4CCC(=O)NC4=O)ccn3)c2=O)nn2c(C(=O)N[C@@H]3C[C@@H]3F)cnc12` (stereo partly drawn) [Example K234], the half-maximal degradation concentration (DC50) was > 100 nM.

`CNc1cc(Nc2cccn(-c3cccc(C(=O)NCCOCCOCCc4ccc5c(c4)n(C)c(=O)n5C4CCC(=O)NC4=O)c3)c2=O)nn2c(C(=O)N[C@@H]3C[C@@H]3F)cnc12` (stereo partly drawn) [Example K235]: the half-maximal degradation concentration (DC50) was > 100 nM.

With `CNc1cc(Nc2cccn(-c3cccc(C(=O)NCCOCCOCCc4cccc5c4n(C)c(=O)n5C4CCC(=O)NC4=O)c3)c2=O)nn2c(C(=O)N[C@@H]3C[C@@H]3F)cnc12` (stereo partly drawn) [Example K236], the DC50 is > 100 nM.

Turning to `CNc1cc(Nc2cccn(-c3cc(C(=O)NCCOCCOCCc4ccc5c(c4)n(C)c(=O)n5C4CCC(=O)NC4=O)ccn3)c2=O)nn2c(C(=O)N[C@@H]3C[C@@H]3F)cnc12` (stereo partly drawn) [Example K237], the half-maximal degradation concentration (DC50) was > 100 nM.

With `CNc1cc(Nc2cccn(-c3cc(C(=O)NCCOCCOCCc4cccc5c4n(C)c(=O)n5C4CCC(=O)NC4=O)ccn3)c2=O)nn2c(C(=O)N[C@@H]3C[C@@H]3F)cnc12` (stereo partly drawn) [Example K238], the DC50 is > 100 nM.

A further assay addresses T1, TYK2. The experiment in a line: TYK2 degradation MSD assay in human PBMC cells. Format: cell-based. Further details: endogenous in cells; host or cells: human PBMC. To be noted: 4 to 24 hours incubation, read-out: TYK2 MSD DC50 rating in human PBMC. The method, boiled down:
as §1
In the case of `CNc1cc(Nc2cccn(-c3cccc(C(=O)NCCCCCCCCc4cccc5c4n(C)c(=O)n5C4CCC(=O)NC4=O)c3)c2=O)nn2c(C(=O)N[C@@H]3C[C@@H]3F)cnc12` (stereo partly drawn) [Example K224], the DC50 was in the range of 10 to 100 nM.

Take `CNc1cc(Nc2cccn(-c3cccc(C(=O)NCCCCCCCCCCc4ccc5c(c4)n(C)c(=O)n5C4CCC(=O)NC4=O)c3)c2=O)nn2c(C(=O)N[C@@H]3C[C@@H]3F)cnc12` (stereo partly drawn) [Example K225]: the DC50 fell in the range of 1 to 10 nM.

Consider `CNc1cc(Nc2cccn(-c3cccc(C(=O)NCCCCCCCCCCc4cccc5c4n(C)c(=O)n5C4CCC(=O)NC4=O)c3)c2=O)nn2c(C(=O)N[C@@H]3C[C@@H]3F)cnc12` (stereo partly drawn) [Example K226], for which the DC50 fell in the range of 10 to 100 nM.

For `CNc1cc(Nc2cccn(-c3cccc(C(=O)NCCCCc4ccc5c(c4)n(C)c(=O)n5C4CCC(=O)NC4=O)c3)c2=O)nn2c(C(=O)N[C@@H]3C[C@@H]3F)cnc12` (stereo partly drawn) [Example K227], the DC50 is > 100 nM.

Turning to `CNc1cc(Nc2cccn(-c3cc(C(=O)NCCCCc4cccc5c4n(C)c(=O)n5C4CCC(=O)NC4=O)ccn3)c2=O)nn2c(C(=O)N[C@@H]3C[C@@H]3F)cnc12` (stereo partly drawn) [Example K228], the DC50 lay within 1 to 10 nM.

Consider `CNc1cc(Nc2cccn(-c3cc(C(=O)NCCCCCCc4ccc5c(c4)n(C)c(=O)n5C4CCC(=O)NC4=O)ccn3)c2=O)nn2c(C(=O)N[C@@H]3C[C@@H]3F)cnc12` (stereo partly drawn) [Example K229], for which the DC50 was < 1 nM.

On to `CNc1cc(Nc2cccn(-c3cc(C(=O)NCCCCCCc4cccc5c4n(C)c(=O)n5C4CCC(=O)NC4=O)ccn3)c2=O)nn2c(C(=O)N[C@@H]3C[C@@H]3F)cnc12` (stereo partly drawn) [Example K230], for which the half-maximal degradation concentration (DC50) fell in the range of 1 to 10 nM.

Regarding `CNc1cc(Nc2cccn(-c3cc(C(=O)NCCCCCCCCc4ccc5c(c4)n(C)c(=O)n5C4CCC(=O)NC4=O)ccn3)c2=O)nn2c(C(=O)N[C@@H]3C[C@@H]3F)cnc12` (stereo partly drawn) [Example K231], the DC50 is < 1 nM.

Turning to `CNc1cc(Nc2cccn(-c3cc(C(=O)NCCCCCCCCc4cccc5c4n(C)c(=O)n5C4CCC(=O)NC4=O)ccn3)c2=O)nn2c(C(=O)N[C@@H]3C[C@@H]3F)cnc12` (stereo partly drawn) [Example K232], the DC50 lay within 1 to 10 nM.

Take `CNc1cc(Nc2cccn(-c3cc(C(=O)NCCCCCCCCCCc4ccc5c(c4)n(C)c(=O)n5C4CCC(=O)NC4=O)ccn3)c2=O)nn2c(C(=O)N[C@@H]3C[C@@H]3F)cnc12` (stereo partly drawn) [Example K233]: the DC50 was 1 to 10 nM.

As to `CNc1cc(Nc2cccn(-c3cc(C(=O)NCCCCCCCCCCc4cccc5c4n(C)c(=O)n5C4CCC(=O)NC4=O)ccn3)c2=O)nn2c(C(=O)N[C@@H]3C[C@@H]3F)cnc12` (stereo partly drawn) [Example K234], the DC50 is > 100 nM.

Regarding `CNc1cc(Nc2cccn(-c3cccc(C(=O)NCCOCCOCCc4ccc5c(c4)n(C)c(=O)n5C4CCC(=O)NC4=O)c3)c2=O)nn2c(C(=O)N[C@@H]3C[C@@H]3F)cnc12` (stereo partly drawn) [Example K235], the half-maximal degradation concentration (DC50) was in the range of 1 to 10 nM.

Consider `CNc1cc(Nc2cccn(-c3cccc(C(=O)NCCOCCOCCc4cccc5c4n(C)c(=O)n5C4CCC(=O)NC4=O)c3)c2=O)nn2c(C(=O)N[C@@H]3C[C@@H]3F)cnc12` (stereo partly drawn) [Example K236], for which the DC50 lay within 1 to 10 nM.

In the case of `CNc1cc(Nc2cccn(-c3cc(C(=O)NCCOCCOCCc4ccc5c(c4)n(C)c(=O)n5C4CCC(=O)NC4=O)ccn3)c2=O)nn2c(C(=O)N[C@@H]3C[C@@H]3F)cnc12` (stereo partly drawn) [Example K237], the DC50 is > 100 nM.

On to `CNc1cc(Nc2cccn(-c3cc(C(=O)NCCOCCOCCc4cccc5c4n(C)c(=O)n5C4CCC(=O)NC4=O)ccn3)c2=O)nn2c(C(=O)N[C@@H]3C[C@@H]3F)cnc12` (stereo partly drawn) [Example K238], for which the DC50 was > 100 nM.

What is called DC50 is the midpoint of the concentration-degradation curve.
